In article PMC10313671, “Accelerating the prediction and discovery of peptide hydrogels with human-in-the-loop” (Nature Communications, 2023):
Where a SMILES comes first, the peptide text is derived from it.

How the values were obtained:
[1] = Transmission electron microscope (negative staining) of peptide assemblies; conditions: TEM, negative staining with uranyl acetate, 120 kV
Description: We used the negative staining technique to observe the morphologies formed by peptides. A micropipette was used to load 10 μL of sample solution to a carbon-coated copper grid, and we used a piece of filter paper to remove the excess solution. After rinsing the grid with the deionized water, we used uranyl acetate to stain the sample for 1 minute and then rinsed the grid with deionized water again.

[2] = Peptide hydrogel formation, vial-inverting method; format: physicochemical; parameters: key to EXP / GELATION: 0: no hydrogel; 1: hydrogel; conditions: for State: ultrasonication, standing 48 h; for State / GELATION: vial-inverting method; for Concentration: concentration at which the state was recorded: lowest of 30, 60, 90, 120 mM that gave a gel, 120 mM for non-gelating peptides; for GELATION: 1 = hydrogel, 0 = no hydrogel
Description: After validating the efficiency of APHC in predicting tetrapeptide hydrogels, we detailed the phase state of 165 synthesized tetrapeptides and the observed assembly behavior in an aqueous solution.
This work defines hydrogel formation as a self-supporting, non-flowing mixture of water and hydrogelator by the vial-inverting method. All purified tetrapeptides were dissolved in ultrapure water (to form a 30 mM solution initially), followed by the stepwise addition of 1 N NaOH solution to adjust the overall aqueous pH to 6.5–8.5. Meanwhile, a short-term ultrasonication treatment was applied after each pH adjustment to facilitate peptide solubilization and speed up peptide self-assembly. […] The mixture was allowed to stand in for another 48 h for complete hydrogelation. Upon the absence of gelation phenomenon during the aforementioned loops, we increased the peptide concentration (60 mM, 90 mM, and 120 mM were selected) and re-started such gelation operation loop to explore their gelation feasibility.

[3] = 30 mM peptide in ultrapure water, pH adjusted to 6.5-8.5 with 1 N NaOH, concentration raised 30/60/90/120 mM until gelation
[4] = 120 mM peptide (highest tested) in ultrapure water, pH 6.5-8.5 (1 N NaOH), precipitate, sol, suspension = no gel
[5] = 60 mM peptide in ultrapure water, pH 6.5-8.5 (1 N NaOH), no gel at 30 mM
[6] = 90 mM peptide in ultrapure water, pH 6.5-8.5 (1 N NaOH), no gel at lower concentrations

Row | Structure (SMILES) | Morphology ([1]; line of the table gives 30 mM) | State [2, 3] | Concentration [2] [µM] | GELATION ([2]; peptide concentration 30 mM) | Morphology ([1]; line of the table gives 60 mM) | State [2, 5] | GELATION ([2]; peptide concentration 60 mM) | also measured
1 | CC[C@H](C)[C@H](NC(=O)[C@H](CC(C)C)NC(=O)[C@@H](NC(=O)[C@@H](N)CC(C)C)C(C)C)C(=O)O [LVLI] (H-LVLI-OH) | sheet | gel | 30000 | 1 |  |  |  | 
2 | CC[C@H](C)[C@H](NC(=O)[C@H](Cc1ccccc1)NC(=O)[C@@H](NC(=O)[C@@H](N)Cc1c[nH]c2ccccc12)C(C)C)C(=O)O [WVFI] (H-WVFI-OH) |  |  | 120000 |  |  |  |  | Morphology ([1]; line of the table gives 120 mM): aggregates; State [2, 4]: suspension; GELATION ([2]; peptide concentration 120 mM): 0
3 | N[C@@H](Cc1ccccc1)C(=O)N[C@@H](CS)C(=O)N[C@@H](Cc1c[nH]c2ccccc12)C(=O)N[C@@H](Cc1c[nH]c2ccccc12)C(=O)O [FCWW] (H-FCWW-OH) |  |  | 120000 |  |  |  |  | Morphology ([1]; line of the table gives 120 mM): aggregates; State [2, 4]: gel; GELATION ([2]; peptide concentration 120 mM): 1
4 | CC(C)C[C@H](NC(=O)[C@H](CC(C)C)NC(=O)[C@@H](N)CC(C)C)C(=O)N[C@@H](Cc1ccccc1)C(=O)O [LLLF] (H-LLLF-OH) | aggregates | gel | 30000 | 1 |  |  |  | 
5 | N[C@@H](CS)C(=O)N[C@@H](Cc1c[nH]cn1)C(=O)N[C@@H](Cc1ccccc1)C(=O)N[C@@H](Cc1c[nH]c2ccccc12)C(=O)O [CHFW] (H-CHFW-OH) | sphere | gel | 30000 | 1 |  |  |  | 
6 | CC[C@H](C)[C@H](N)C(=O)N[C@@H](CCC(N)=O)C(=O)N[C@H](C(=O)N[C@H](C(=O)O)[C@@H](C)CC)[C@@H](C)CC [IQII] (H-IQII-OH) |  |  | 60000 |  | hybrid(sphere+fibre) | gel | 1 | 
7 | CC(C)C[C@H](NC(=O)[C@@H](N)CO)C(=O)N[C@H](C(=O)N[C@H](C(=O)O)C(C)C)C(C)C [SLVV] (H-SLVV-OH) |  |  | 60000 |  | fibre | gel | 1 | 
8 | NCC(=O)N[C@@H](Cc1ccccc1)C(=O)N[C@@H](Cc1ccccc1)C(=O)N[C@@H](Cc1ccc(O)cc1)C(=O)O [GFFY] (H-GFFY-OH) | sheet | gel | 30000 | 1 |  |  |  | 
9 | CC[C@H](C)[C@H](NC(=O)[C@H](Cc1ccc(O)cc1)NC(=O)[C@@H]1CCCN1C(=O)[C@@H](N)Cc1ccc(O)cc1)C(=O)O [YPYI] (H-YPYI-OH) |  |  | 120000 |  |  |  |  | Morphology ([1]; line of the table gives 120 mM): aggregates; State [2, 4]: sol; GELATION ([2]; peptide concentration 120 mM): 0
10 | CC[C@H](C)[C@H](NC(=O)[C@H](C)NC(=O)[C@@H](NC(=O)[C@@H](N)CC(C)C)C(C)C)C(=O)O [LVAI] (H-LVAI-OH) |  |  | 60000 |  | fibre | gel | 1 | 
11 | CC[C@H](C)[C@H](NC(=O)[C@@H](N)CC(C)C)C(=O)N[C@@H](CCC(=O)O)C(=O)N[C@@H](CCSC)C(=O)O [LIEM] (H-LIEM-OH) |  |  | 90000 |  |  |  |  | Morphology ([1]; line of the table gives 90 mM): hybrid(sheet+fibre); State [2, 6]: gel; GELATION ([2]; peptide concentration 90 mM): 1
12 | CC[C@H](C)[C@H](NC(=O)[C@@H](NC(=O)[C@@H](N)CC(C)C)C(C)C)C(=O)N[C@@H](Cc1ccccc1)C(=O)O [LVIF] (H-LVIF-OH) |  |  | 60000 |  | fibre | gel | 1 | 
13 | CC[C@H](C)[C@H](NC(=O)[C@@H](NC(=O)[C@@H](NC(=O)[C@@H]1CCCN1)C(C)C)[C@@H](C)CC)C(=O)O [PVII] (H-PVII-OH) |  |  | 90000 |  |  |  |  | Morphology ([1]; line of the table gives 90 mM): fibre; State [2, 6]: gel; GELATION ([2]; peptide concentration 90 mM): 1
14 | NCCCC[C@H](NC(=O)[C@@H](N)Cc1ccccc1)C(=O)N[C@@H](Cc1ccccc1)C(=O)N[C@@H](Cc1ccccc1)C(=O)O [FKFF] (H-FKFF-OH) |  |  | 60000 |  | sheet | gel | 1 | 
15 | CC[C@H](C)[C@H](NC(=O)[C@@H](NC(=O)[C@@H](N)Cc1c[nH]c2ccccc12)[C@@H](C)CC)C(=O)N[C@@H](Cc1ccccc1)C(=O)O [WIIF] (H-WIIF-OH) | fibre | gel | 30000 | 1 |  |  |  | 
